# Laboratory results taken from patent US9162992B2, “Compounds and compositions for treatment of breathing control disorders or diseases” (GALLEON PHARMACEUTICALS, INC., priority 2010, dated 2015).
# Key:
# [1] = test system: hypercapnic ventilatory response; experiment: Hypercapnic ventilatory response (HCVR, 3% CO2), rat plethysmography; format: in vivo; details: for hypercapnia ventilatory response (HCVR): 3% CO2
# Protocol: A 1.5 mg/mL stock was created to give an infusion dose of 0.10 mg/kg/min. A separate 0.45 mg/mL stock was created to give an infusion dose of 0.03 mg/kg/min. All compound solutions and vehicles were titrated to have a pH between 4-8, using a pH paper and titrating with NaOH or HCl solution.
# Male Sprague-Dawley rats (Harlan, Inc.), 250-350 g at time of dosing, had been surgically prepared by Harlan to contain jugular vein cannulas. A 12 chamber plethysmography system with temperature/humidity compensation (Epstein et al., 1980, J. Apply Physiol. 49:1107-1115) from Buxco, Inc. (PLY 3223; Buxco, Inc, Wilmington, N.C., USA) using Biosystem XA software, v2.11.1 and a customized 12 site automated infusion system (Harvard Apparatus, Instech, Inc). Gas mixer (CWE Inc.) was used for this experiment to give concentrations of hypercapnia (3% CO2, 21% O2, balance nitrogen). Three tanks containing 100% O2, CO2, and nitrogen were attached to the gas mixer, with the customized gas mixture fed to each plethysmograph at a rate of 2 L/min.
# Rat whole body plethysmography was used to evaluate and quantify minute ventilation and the pattern of breathing. A respiratory waveform was generated from the exchange of air between the animal and the chamber. This exchange induced changes in air volume that were measured with a pressure transducer, constituting the respiratory waveform (Lomask M., 2005, “Respiration measurement in the whole body plethysmography,” Buxco Inc., retrieved from http://www dot buxco dot com/downloads/LomaskWBP dot pdf). Atmospheric temperature and humidity were also measured using temperature and humidity probes that sampled chamber conditions. A compensation factor was then determined and applied to the respiratory waveform using a standardized algorithm (Epstein et al., 1980, J. Apply Physiol. 49:1107-1115) to compensate for respiratory conditioning, which was reported as the parameter COMP.
# All animals were acclimated to plethysmography chambers for at least 1 hour, or until animals were no longer restless (up to 2 hours prior to data collection). Minute ventilation (MV) was calculated by the Biosystem XA software from direct measurements of tidal volume (TV) and respiratory frequency (f) using the formula MV=TV×f. Minute ventilation (mL/min) is a common endpoint for evaluating ventilatory performance. The protocol included compound (XXXVI) given as a 20 minute infusion, followed by a 20 minute exposure to 3% hypercapnia in addition to the compound (XXXVI) infusion. After 20 minutes of hypercapnia, the compound (XXXVI) infusion continued for an additional 10 minutes, resulting in a total compound (XXXVI) infusion time of 50 minutes. Each experiment included 6 animals receiving compound (XXXVI) (0.03 or 0.10 mg/kg/min) tested against 6 animals receiving vehicle, all of which were challenged with hypercapnia (3%). Animals were continuously monitored and observed for adverse behavioral effects. Such findings were recorded into laboratory notebooks for each individual animal tested.
# Respiratory data was collected on a breath-by-breath basis and averaged into 1 min time bins for data analysis. […] Each parameter was compared to vehicle in order to calculate percent difference, using area under the curve (AUC) and peak response values for each defined acquisition period using a customized visual basic restructure analysis macro (Lopotosky, S. Galleon Buxco Restructure tool, v5.2, 2008). All of the data analysis for the single, stand-alone studies was done using the restructure analysis macro (Lopotosky, S. Galleon Buxco Restructure tool, v5.2, 2008). All merged data analysis with both doses was performed in Graphpad Prism for MV, TV, and f only, for hypercapnia studies. Additionally, percent increase was calculated based on the cohort average immediately prior to the hypercapnic challenge to the group's peak response. For merged hypercapnia studies, t=62 to t=67 was used.
# [2] = test system: morphine-induced respiratory depression; experiment: Effects of morphine and compound on arterial blood gases in the rat; format: in vivo; details: for PaCO2 (% reversal) / PaO2 (% reversal) / SaO2 (% reversal) / pH (% reversal): morphine 10 mg/kg
# Protocol: Rats with pre-cannulated jugular vein and femoral arterial catheters (for administering drugs and obtaining blood samples respectively) were obtained from Harlan laboratories and kept at the animal facility at Galleon Pharmaceuticals until the experimental procedures. Each animal was dosed with morphine sulfate (10 mg/kg), dissolved in saline at a concentration of 10 mg/mL, via injection into the jugular vein over a period of 20 seconds with a 20 second flush of 0.9% NaCl saline. Prior to morphine administration, two 250 μL samples of arterial blood were aspirated from the femoral artery into a pre-heparinized syringe. The samples were analyzed on Radiometer's ABL Flex 800, where pO2, pCO2, pH, SaO2 and other parameters were recorded. Aspirated volumes of arterial blood were replaced by room temperature sterile saline (˜300 μL) slowly flushed back into the femoral arterial catheter of the rodent to prevent hypovolemia. Morphine was then administered and 2 minutes later another blood sample was taken.
# The infusion started at t=15 minutes and ended at t=35 minutes. Arterial blood gas analysis occurred at time points t=12, 18, 25, 35, 40, 45, and 50 minutes.
structure (smiles),measurement,setting,value
"CCCNc1nc(NCCC)nc(N(C)OC)n1.O=S(=O)(O)O [XXXVI, N-(4,6-Bis-n-propylamino-[1,3,5]triazin-2-yl)-N,O-dimethyl-hydroxylamine hydrogen sulfate]",facilitation of the HCVR,"[1]; 0.03 mg/kg/min (same as vehicle group), t=62 to t=67",60%
same,respiration in naive animals,[1]; 0.03 mg/kg/min IV infusion,little or no effect
same,hypercapnia ventilatory response (HCVR),[1]; 0.03 mg/kg/min,no effect
same,respiration in naive animals,[1]; 0.10 mg/kg/min IV infusion,stimulated respiration in naive animals
same,hypercapnia ventilatory response (HCVR),[1]; 0.10 mg/kg/min,augmentation of the hypercapnia ventilatory response (HCVR)
same,increase in MV during the HCVR challenge,"[1]; 0.10 mg/kg/min, t=62 to t=67, on top of elevated MV due to compound alone",44%
same,adverse clinical observations,"[1]; rats, doses tested",no adverse clinical observations
same,"arterial blood gases, reversal of opioid-induced respiratory depression","[2]; infusion 0.1, 0.3 and 1.0 mg/kg/min, vs vehicle",significantly reverses opioid-induced respiratory depression
same,PaCO2 (% reversal),[2]; infusion 0.03 mg/kg/min,18 % reversal
same,PaO2 (% reversal),[2]; infusion 0.03 mg/kg/min,−2.0 % reversal
same,SaO2 (% reversal),[2]; infusion 0.03 mg/kg/min,42 % reversal
same,pH (% reversal),[2]; infusion 0.03 mg/kg/min,20 % reversal
same,PaCO2 (% reversal),[2]; infusion 0.1 mg/kg/min,47 % reversal
same,PaO2 (% reversal),[2]; infusion 0.1 mg/kg/min,16 % reversal
same,SaO2 (% reversal),[2]; infusion 0.1 mg/kg/min,51 % reversal
same,pH (% reversal),[2]; infusion 0.1 mg/kg/min,37 % reversal
same,PaCO2 (% reversal),[2]; infusion 0.3 mg/kg/min,72 % reversal
same,PaO2 (% reversal),[2]; infusion 0.3 mg/kg/min,−16 % reversal
same,SaO2 (% reversal),[2]; infusion 0.3 mg/kg/min,43 % reversal
same,pH (% reversal),[2]; infusion 0.3 mg/kg/min,55 % reversal
same,PaCO2 (% reversal),[2]; infusion 1 mg/kg/min,94 % reversal
same,PaO2 (% reversal),[2]; infusion 1 mg/kg/min,26 % reversal
same,SaO2 (% reversal),[2]; infusion 1 mg/kg/min,62 % reversal
same,pH (% reversal),[2]; infusion 1 mg/kg/min,60 % reversal
